Experiments:
[1] = Dissolution of API from ODTs (USP 31 guidelines); format: physicochemical; conditions: 70-80N hardness
Protocol: Dissolution properties of the ODTs were determined by following USP 31 guidelines for each model APIs. The percent of drug released at predetermined time intervals were calculated and plotted against the sampling time to obtain the release profiles. ODTs that fall within a 70-80N hardness range were studied.

[2] = cited from earlier work
[3] = cited from earlier work; remark: listed apart in the source

CC(=O)Nc1ccc(O)cc1 [Acetaminophen]
time to full release of API from ODT ([1]; acetaminophen ODTs): ≤ 10 min | pKa [2]: 9.2 | solubility in water (in words) [3]: highly water soluble

CC(=O)Oc1ccccc1C(=O)O [Aspirin]
solubility in water (in words) [3]: highly water soluble

CN(C)CC[C@@H](c1ccc(Cl)cc1)c1ccccn1.O=C(O)/C=C\C(=O)O [CPM, Chlorpheniramine Maleate]
time to full release of API from ODT ([1]; CPM ODTs): ≤ 5 min | pKa [2]: 9.2

COc1ccc2cc([C@H](C)C(=O)O)ccc2c1 [Naproxen]
time to full release of API from ODT ([1]; naproxen ODTs): ≤ 10 min

OC[C@@H](O)[C@@H](O)[C@H](O)[C@H](O)CO [Spray dried mannitol, mannitol]
time in which 5 g dissolves in 150 mL of water ([3]; at 20° C.): approximately 5 sec

Cn1c(=O)c2nc[nH]c2n(C)c1=O [Theophylline]
time to full release of API from ODT ([1]; theophylline ODTs): fully released at five minutes | pKa [2]: 8.7 | solubility in water ([3]; neutral distilled water at 25° C.): about 8 mg/mL

From US20110105441A1, “Stable Orally Disintegrating Tablets Having Low Superdisintegrant” (FMC CORPORATION, priority 2009, published 2011)
